Test results: patent US8431376B2, “Bacterial replication systems and methods” (priority 2004, dated 2013)

Legend:
Type in all cases: biochemical
[1] = target: S. pyogenes DNA polymerase holoenzyme (PolC, tau-complex, β) (Streptococcus pyogenes, UniProt Q8NZB5); details: read-out: IC50 S. pyog.
[2] = target: Y. pestis DNA polymerase III holoenzyme (Yersinia pestis, UniProt Q0WHY6); details: read-out: IC50 Y. pestis
[3] = target: Y. pestis DNA polymerase III holoenzyme
Pol III holoenzyme = details: read-out: low μM activity as Pol III holoenzyme inhibitor

Chain of S. pyogenes DNA polymerase holoenzyme (PolC, tau-complex, β) (Q8NZB5 whole entry): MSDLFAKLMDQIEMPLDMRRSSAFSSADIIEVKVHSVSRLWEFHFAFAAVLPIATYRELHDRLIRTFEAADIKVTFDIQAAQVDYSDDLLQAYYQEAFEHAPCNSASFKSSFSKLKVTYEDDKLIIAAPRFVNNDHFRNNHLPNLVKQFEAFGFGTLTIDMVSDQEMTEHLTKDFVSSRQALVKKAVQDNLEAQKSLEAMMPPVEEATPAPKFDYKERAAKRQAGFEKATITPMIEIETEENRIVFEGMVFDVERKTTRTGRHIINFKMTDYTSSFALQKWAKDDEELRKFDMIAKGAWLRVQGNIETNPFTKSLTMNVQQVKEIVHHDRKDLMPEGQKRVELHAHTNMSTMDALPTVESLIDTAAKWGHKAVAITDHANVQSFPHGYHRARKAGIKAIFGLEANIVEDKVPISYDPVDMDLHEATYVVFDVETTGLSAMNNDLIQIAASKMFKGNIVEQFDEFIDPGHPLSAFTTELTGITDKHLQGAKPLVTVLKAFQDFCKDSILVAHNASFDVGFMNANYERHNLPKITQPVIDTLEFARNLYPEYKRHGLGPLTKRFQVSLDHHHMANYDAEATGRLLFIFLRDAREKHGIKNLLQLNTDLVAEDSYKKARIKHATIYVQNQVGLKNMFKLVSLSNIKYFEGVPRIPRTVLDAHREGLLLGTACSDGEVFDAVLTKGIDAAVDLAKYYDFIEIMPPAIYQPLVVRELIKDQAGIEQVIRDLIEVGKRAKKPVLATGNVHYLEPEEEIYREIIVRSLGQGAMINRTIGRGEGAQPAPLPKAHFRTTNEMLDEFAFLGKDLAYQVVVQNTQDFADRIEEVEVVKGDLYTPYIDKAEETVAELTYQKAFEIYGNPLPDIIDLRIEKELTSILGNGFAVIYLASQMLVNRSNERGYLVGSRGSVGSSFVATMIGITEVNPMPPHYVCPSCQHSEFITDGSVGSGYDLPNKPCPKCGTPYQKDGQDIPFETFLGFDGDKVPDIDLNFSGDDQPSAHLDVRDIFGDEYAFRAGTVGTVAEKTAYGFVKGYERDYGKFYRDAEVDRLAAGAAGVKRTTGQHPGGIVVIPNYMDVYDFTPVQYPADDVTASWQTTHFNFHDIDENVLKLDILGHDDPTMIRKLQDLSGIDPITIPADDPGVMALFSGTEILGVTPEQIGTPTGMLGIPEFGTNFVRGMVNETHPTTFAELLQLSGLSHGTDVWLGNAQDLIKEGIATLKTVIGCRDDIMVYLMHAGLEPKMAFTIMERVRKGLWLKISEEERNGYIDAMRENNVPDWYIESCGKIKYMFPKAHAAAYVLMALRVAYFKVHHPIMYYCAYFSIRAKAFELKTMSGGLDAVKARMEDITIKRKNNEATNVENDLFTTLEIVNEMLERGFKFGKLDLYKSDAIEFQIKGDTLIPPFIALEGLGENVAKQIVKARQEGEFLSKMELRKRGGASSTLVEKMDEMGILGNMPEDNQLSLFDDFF
Chain of S. pyogenes DNA polymerase holoenzyme (PolC, tau-complex, β) (Q7DAL6 1-556 partner): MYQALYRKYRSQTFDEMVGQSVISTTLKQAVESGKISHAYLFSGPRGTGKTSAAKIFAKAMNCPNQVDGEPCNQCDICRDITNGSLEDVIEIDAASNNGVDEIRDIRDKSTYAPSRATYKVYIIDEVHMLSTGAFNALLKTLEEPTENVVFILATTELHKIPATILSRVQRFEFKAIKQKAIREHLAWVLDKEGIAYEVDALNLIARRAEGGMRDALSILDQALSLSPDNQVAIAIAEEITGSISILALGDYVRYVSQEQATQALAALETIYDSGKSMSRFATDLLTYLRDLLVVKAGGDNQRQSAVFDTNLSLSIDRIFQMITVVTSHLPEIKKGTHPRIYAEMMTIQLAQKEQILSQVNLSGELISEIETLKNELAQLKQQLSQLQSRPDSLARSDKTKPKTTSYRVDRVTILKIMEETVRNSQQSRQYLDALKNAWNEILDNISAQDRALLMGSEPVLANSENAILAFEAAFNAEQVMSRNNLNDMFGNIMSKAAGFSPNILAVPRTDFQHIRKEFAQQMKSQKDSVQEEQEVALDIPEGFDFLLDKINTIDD
Chain of S. pyogenes DNA polymerase holoenzyme (PolC, tau-complex, β) (Q7DAL5 1-346 partner): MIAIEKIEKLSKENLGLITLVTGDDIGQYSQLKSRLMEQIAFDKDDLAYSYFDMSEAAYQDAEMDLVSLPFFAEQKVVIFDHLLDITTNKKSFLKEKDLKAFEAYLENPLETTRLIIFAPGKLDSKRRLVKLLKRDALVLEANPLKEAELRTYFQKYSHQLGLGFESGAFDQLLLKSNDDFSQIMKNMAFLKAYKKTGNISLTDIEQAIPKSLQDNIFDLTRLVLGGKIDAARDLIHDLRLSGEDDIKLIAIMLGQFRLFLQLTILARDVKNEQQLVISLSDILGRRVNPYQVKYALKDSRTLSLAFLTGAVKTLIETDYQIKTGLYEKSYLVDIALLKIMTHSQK
Chain of S. pyogenes DNA polymerase holoenzyme (PolC, tau-complex, β) (Q9A209 1-378 partner): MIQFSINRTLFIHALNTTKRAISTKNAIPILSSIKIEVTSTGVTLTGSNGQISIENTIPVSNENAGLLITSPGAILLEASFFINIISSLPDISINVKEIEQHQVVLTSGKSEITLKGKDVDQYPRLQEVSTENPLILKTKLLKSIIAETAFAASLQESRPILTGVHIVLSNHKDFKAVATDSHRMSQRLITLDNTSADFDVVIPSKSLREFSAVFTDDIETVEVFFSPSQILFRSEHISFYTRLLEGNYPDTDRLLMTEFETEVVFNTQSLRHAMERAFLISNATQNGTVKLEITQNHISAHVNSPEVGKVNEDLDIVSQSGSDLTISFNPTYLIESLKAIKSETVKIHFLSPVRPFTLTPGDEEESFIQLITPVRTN

Row | SMILES | IC50 [1] [µM] | IC50 [2] [µM] | IC50 [3] [µM] | IC50 (Pol III holoenzyme) [µM]
1 | COc1c(Br)cc(Br)cc1/C=C1\SC(=S)NC1=O | 18.1 | 31.4 | – | –
2 | CCOc1c(Br)cc(Br)cc1/C=C1\SC(=S)NC1=O | 13.5 | 22.3 | – | –
3 | CC(C)Oc1c(Br)cc(Br)cc1/C=C1\SC(=S)NC1=O | 7.11 | 18.8 | – | –
4 | O=C1NC(=S)S/C1=C\c1cc(Br)cc(Br)c1O | > 320 | > 320 | – | –
5 | O=C1NC(=S)S/C1=C\c1cc(Br)cc(Br)c1 | 14.2 | 22 | – | –
6 | C/N=C1\NC(=O)/C(=C/c2cc(Br)cc(Br)c2OC)S1 | > 320 | > 320 | – | –
7 | O=C1NC(=S)S/C1=C\c1cc(Br)ccc1F | 64.5 | 95.9 | – | –
8 | O=C1NC(=S)S/C1=C\c1ccc(Br)cc1F | 60 | 28.5 | – | –
9 | O=C1NC(=S)S/C1=C\c1cc(F)c(F)cc1F | 121 | 203 | – | –
10 | O=C1NC(=S)S/C1=C\c1cccc(Cl)c1F | 79.9 | 123 | – | –
11 | COc1cccc(/C=C2\SC(=S)NC2=O)c1F | 277 | 54.1 | – | –
12 | COc1cccc(OC)c1/C=C1\SC(=S)NC1=O | > 320 | 186 | – | –
13 | Cc1cccc(C)c1/C=C1\SC(=S)NC1=O | 271 | 302 | – | –
14 | O=C1NC(=S)S/C1=C\c1c(Cl)cccc1Cl | 102 | 162 | – | –
15 | O=C1NC(=S)S/C1=C\c1cc([N+](=O)[O-])ccc1Sc1ccc(Cl)cc1 | 3.53 | 4.62 | – | –
16 | CC(C)(C)c1ccc(Oc2ccc([N+](=O)[O-])cc2/C=C2\SC(=S)NC2=O)cc1 | 4.38 | 7.03 | – | –
17 | O=C1NC(=S)S/C1=C\c1cc([N+](=O)[O-])ccc1OC(F)F | 96 | 52.9 | – | –
18 | O=C1NC(=S)S/C1=C\c1cc([N+](=O)[O-])ccc1SC1CCCCC1 | 8.73 | 9.94 | – | –
19 | COc1ccc([N+](=O)[O-])cc1/C=C1\SC(=S)NC1=O | 89 | 126 | – | –
20 | COc1ccc(/C=C2\SC(=S)NC2=O)cc1[N+](=O)[O-] | > 320 | 48.9 | – | –
21 | O=C1NC(=S)S/C1=C\c1ccc(N2CCOCC2)c([N+](=O)[O-])c1 | > 320 | > 320 | – | –
22 | O=C1NC(=S)S/C1=C\c1ccc(Cl)cc1[N+](=O)[O-] | 133 | 63.9 | – | –
23 | O=C1NC(=S)S/C1=C\c1cc(Cl)ccc1[N+](=O)[O-] | 163 | 267 | – | –
24 | COc1cccc(F)c1/C=C1\SC(=S)NC1=O | > 320 | – | 195 | –

Row | SMILES | IC50 [1] [µM] | IC50 [2] [µM] | IC50 [3] [µM] | IC50 (Pol III holoenzyme) [µM]
25 | COc1ccc(F)c(/C=C2\SC(=S)NC2=O)c1 | 193 | 179 | – | –
26 | O=C1NC(=S)S/C1=C\c1ccc(F)c(F)c1 | 181 | 241 | – | –
27 | O=C1NC(=S)S/C1=C\c1cc(F)ccc1F | 211 | – | – | –
28 | O=C1NC(=S)S/C1=C\c1c(F)cccc1F | > 320 | 196 | – | –
29 | O=C1NC(=S)S/C1=C\c1cccc(F)c1F | 214 | 212 | – | –
30 | O=C1NC(=S)S/C1=C\c1ccc(F)cc1F | 288 | 315 | – | –
31 | O=C1NC(=S)S/C1=C\c1cc(C(F)(F)F)ccc1F | 45.1 | 108 | – | –
32 | O=C1NC(=S)S/C1=C\c1cccc(C(F)(F)F)c1F | 67.9 | 166 | – | –
33 | COc1cc(F)c(/C=C2\SC(=S)NC2=O)cc1OC | > 320 | > 320 | – | –
34 | C/N=C1\NC(=O)/C(=C/c2ccc(Cl)c(Cl)c2)S1 | 112 | 286 | – | –
35 | N=C1NC(=O)/C(=C/c2ccc(Cl)c(Cl)c2)S1 | 145 | 116 | – | –
36 | O=C1NC(=S)S/C1=C\c1cc([N+](=O)[O-])ccc1N1CCCCC1 | 23.7 | 41.2 | – | –
37 | O=C1NC(=S)S/C1=C\c1cc([N+](=O)[O-])ccc1N1CCOCC1 | 192 | 108 | – | –
38 | O=C1NC(=S)S/C1=C\c1cc([N+](=O)[O-])ccc1F | 89.7 | 101 | – | –
39 | O=C1NC(=S)S/C1=C\c1cc([N+](=O)[O-])ccc1Cl | 81.6 | 88.9 | – | –
40 | O=C1NC(=S)S/C1=C\c1ccc(Cl)c([N+](=O)[O-])c1 | 24.2 | 27.2 | – | –
41 | O=C1NC(=S)S/C1=C\c1cc2c(cc1[N+](=O)[O-])OCO2 | 98.3 | 144 | – | –
42 | COc1cc(/C=C2\SC(=S)NC2=O)c([N+](=O)[O-])cc1OC | > 320 | > 320 | – | –
43 | CN(C)c1ccc(/C=C2\SC(=S)NC2=O)c([NH+]([O-])O)c1 (stereo not shown) | 44.4 | 22.6 | – | –
44 | O=C1NC(=S)S/C1=C\c1ccc([N+](=O)[O-])c(O)c1 | – | 162 | – | –
45 | O=C1NC(=S)SC1=Cc1cc([N+](=O)[O-])ccc1Sc1ccc(Cl)cc1 [5-[2-(4-Chloro-phenylsulfanyl)-5-nitro-benzylidene]-2-thioxo-thiazolidin-4-one] | – | – | – | 3 to 7
46 | O=C1NC(=S)S/C1=C\c1ccc(Cl)c(Cl)c1 [drawing 34] | 37.2 | 61.6 | – | –
47 | O=C1NC(=S)S/C1=C\c1ccc(Cl)c(Cl)c1 [drawing 37] | > 320 | > 320 | – | –
